# Results from US20260022143A1, “Cyclic Peptide Inhibitors of IL-23” (JANSSEN PHARMACEUTICA NV, priority 2022, published 2026).
# Counter-ions that a name gives are not always drawn. Starred links: 1 amine or outer side, 2 acyl side, 3 side chain; linkers in the order of their positions; H or OH if unused. Positions of bridges follow the written chain, without caps; N, C: chain ends. Non-standard residues stand in square brackets, D forms with d. Residues, ends and D or L forms follow the SMILES beside them. *: point of attachment. Ala(1-Me-3-pyridinium) = C[n+]1cccc(C[C@H](N)C(=O)O)c1; Trp(7-Me) = Cc1cccc2c(C[C@H](N)C(=O)O)c[nH]c12; Dab(NMeAc) = CC(=O)N(C)CC[C@H](N)C(=O)O; Ac6c(4,4-F2) = NC1(C(=O)O)CCC(F)(F)CC1; Pro(4,4-F2) = O=C(O)[C@@H]1CC(F)(F)CN1; 2Nal = N[C@@H](Cc1ccc2ccccc2c1)C(=O)O; AEF = NCCOc1ccc(C[C@H](N)C(=O)O)cc1; X79 = CN1CCC(N[*:1])(C(=O)[*:2])CC1; 3Pal = N[C@@H](Cc1cccnc1)C(=O)O; Lys(Me) = CNCCCC[C@H](N)C(=O)O; Pen = CC(C)(S)[C@H](N)C(=O)O; Thp = NC1(C(=O)O)CCOCC1; Me2NCH2CH2 = CN(C)CC*; Tfa = O=C(C(F)(F)F)*; Sar = CNCC(=O)O; CHF2 = FC(F)*
# Test: Exposed Polar Surface Area (EPSA)
# Type: physicochemical
# Conditions: SFC on Chirex 3014 column; sample 1 mM DMSO stock; read-out: EPSA
# In short: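 SFC retention on a Chirex 3014 (S-valine/(R)-1-(α-naphthyl)ethylamine) column at 35 °C, 4 mL/min, 14 MPa outlet, 5–60% methanol/20 mM ammonium formate gradient in CO2. Retention times converted to EPSA (Å²) via linear calibration with 8 standards; samples from 1 mM DMSO stock, run in duplicate.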
row,EPSA,Compound
1,162 A^2,"CC(=O)NCCCC[C@@H]1NC(=O)[C@H](Cc2c[nH]c3c(C)cccc23)NC(=O)[C@H]([C@@H](C)O)NC(=O)[C@H](CC(N)=O)NC(=O)[C@@H](NC(=O)C(F)(F)F)C(C)(C)SSC(C)(C)[C@@H](C(=O)N[C@@H](Cc2ccc(OCCN)cc2)C(=O)N[C@@H](Cc2ccc3ccccc3c2)C(=O)NC2(C(=O)N[C@@H](CCCCNC(C)=O)C(=O)N[C@@H](CC(N)=O)C(=O)N[C@@H](Cc3cccnc3)C(=O)N(C)CC(N)=O)CCC(F)(F)CC2)NC1=O [compound 50] (Tfa-[Pen]NT[Trp(7-Me)]K(Ac)[Pen][AEF][2Nal][Ac6c(4,4-F2)]K(Ac)N[3Pal][Sar]-NH2; disulfide 1-6 (inferred))"
2,156 A^2,CC(=O)NCCCC[C@H](NC(=O)C1(NC(=O)[C@H](Cc2ccc3ccccc3c2)NC(=O)[C@H](Cc2ccc(OCCN)cc2)NC(=O)[C@H]2NC(=O)[C@H](CCN(C)C(C)=O)NC(=O)[C@H](Cc3c[nH]c4c(C)cccc34)NC(=O)[C@H]([C@@H](C)O)NC(=O)[C@H](CC(N)=O)NC(=O)[C@@H](NC(=O)C(F)(F)F)C(C)(C)SSC2(C)C)CCOCC1)C(=O)N[C@@H](CC(N)=O)C(=O)N[C@@H](Cc1ccc[n+](C)c1)C(=O)N(C)CC(N)=O [compound 51] (Tfa-[Pen]NT[Trp(7-Me)][Dab(NMeAc)][Pen][AEF][2Nal][Thp]K(Ac)N[Ala(1-Me-3-pyridinium)][Sar]-NH2; disulfide 1-6)
3,155 A^2,CC(=O)NCCCC[C@@H]1NC(=O)[C@H](Cc2c[nH]c3c(C)cccc23)NC(=O)[C@H]([C@@H](C)O)NC(=O)[C@H](CC(N)=O)NC(=O)[C@@H](NC(=O)C(F)(F)F)C(C)(C)SSC(C)(C)[C@@H](C(=O)N[C@@H](Cc2ccc(OCCN(C)C)cc2)C(=O)N[C@@H](Cc2ccc3ccccc3c2)C(=O)NC2(C(=O)N[C@@H](CCCCNC(C)=O)C(=O)N[C@@H](CC(N)=O)C(=O)N[C@@H](Cc3cccnc3)C(=O)N(C)CC(N)=O)CCOCC2)NC1=O [compound 53] (Tfa-[Pen]NT[Trp(7-Me)]K(Ac)[Pen]Y(Me2NCH2CH2)[2Nal][Thp]K(Ac)N[3Pal][Sar]-NH2; disulfide 1-6 (inferred))
4,156 A^2,CC(=O)NCCCC[C@@H]1NC(=O)[C@H](Cc2c[nH]c3c(C)cccc23)NC(=O)[C@H]([C@@H](C)O)NC(=O)[C@H](CC(N)=O)NC(=O)[C@@H](NC(=O)C(F)(F)F)C(C)(C)SSC(C)(C)[C@@H](C(=O)N[C@@H](Cc2ccc(OC(F)F)cc2)C(=O)N[C@@H](Cc2ccc3ccccc3c2)C(=O)NC2(C(=O)N[C@@H](CCCCNC(C)=O)C(=O)N[C@@H](CC(N)=O)C(=O)N[C@@H](Cc3cccnc3)C(=O)N(C)CC(N)=O)CCOCC2)NC1=O [compound 54] (Tfa-[Pen]NT[Trp(7-Me)]K(Ac)[Pen]Y(CHF2)[2Nal][Thp]K(Ac)N[3Pal][Sar]-NH2; disulfide 1-6 (inferred))
5,159 A^2,CC(=O)NCCCC[C@@H]1NC(=O)[C@H](Cc2c[nH]c3c(C)cccc23)NC(=O)[C@H]([C@@H](C)O)NC(=O)[C@H](CC(N)=O)NC(=O)[C@@H](NC(=O)C(F)(F)F)C(C)(C)SSC(C)(C)[C@@H](C(=O)N[C@@H](Cc2ccc(OCCN)cc2)C(=O)N[C@@H](Cc2ccc3ccccc3c2)C(=O)NC2(C(=O)N[C@@H](CCCCNC(C)=O)C(=O)N[C@@H](CC(N)=O)C(=O)N[C@@H](Cc3cccnc3)C(=O)N(C)CC(N)=O)CCN(C)CC2)NC1=O [compound 55] (Tfa-[Pen]NT[Trp(7-Me)]K(Ac)[Pen][AEF][2Nal][X79]K(Ac)N[3Pal][Sar]-NH2; disulfide 1-6 (inferred))
6,166 A^2,CC(=O)NCCCC[C@@H]1NC(=O)[C@H](Cc2c[nH]c3c(C)cccc23)NC(=O)[C@H]([C@@H](C)O)NC(=O)[C@H](CC(N)=O)NC(=O)[C@@H](NC(C)=O)C(C)(C)SSC(C)(C)[C@@H](C(=O)N[C@@H](Cc2ccc(OCCN)cc2)C(=O)N[C@@H](Cc2ccc3ccccc3c2)C(=O)NC2(C(=O)N[C@@H](CCCCN(C)C(C)=O)C(=O)N[C@@H](CC(N)=O)C(=O)N[C@@H](Cc3cccnc3)C(=O)N(C)CC(N)=O)CCOCC2)NC1=O [compound 59] (Ac-[Pen]NT[Trp(7-Me)]K(Ac)[Pen][AEF][2Nal][Thp][Lys(Me)](Ac)N[3Pal][Sar]-NH2; disulfide 1-6 (inferred))
7,159 A^2,CC(=O)NCCCC[C@H](NC(=O)C1(NC(=O)[C@H](Cc2ccc3ccccc3c2)NC(=O)[C@H](Cc2ccc(OCCN)cc2)NC(=O)[C@H]2NC(=O)[C@H](CCC(=O)N(C)C)NC(=O)[C@H](Cc3c[nH]c4c(C)cccc34)NC(=O)[C@H]([C@@H](C)O)NC(=O)[C@H](CC(N)=O)NC(=O)[C@@H](NC(=O)C(F)(F)F)C(C)(C)SSC2(C)C)CCOCC1)C(=O)N[C@@H](CC(N)=O)C(=O)N[C@@H](Cc1cccnc1)C(=O)N(C)CC(N)=O [compound 61] (Tfa-[Pen]NT[Trp(7-Me)]E(NMe2)[Pen][AEF][2Nal][Thp]K(Ac)N[3Pal][Sar]-NH2; disulfide 1-6 (inferred))
8,154 A^2,COCCOCCOCCOCCOCCOCCNCCOc1ccc(C[C@H](NC(=O)[C@H]2NC(=O)[C@H](CCCCNC(C)=O)NC(=O)[C@H](Cc3c[nH]c4c(C)cccc34)NC(=O)[C@H]([C@@H](C)O)NC(=O)[C@H](CC(N)=O)NC(=O)[C@@H](NC(C)=O)C(C)(C)SSC2(C)C)C(=O)N[C@@H](Cc2ccc3ccccc3c2)C(=O)NC2(C(=O)N[C@@H](CCCCNC(C)=O)C(=O)N[C@@H](CC(N)=O)C(=O)N[C@@H](Cc3cccnc3)C(=O)N(C)CC(N)=O)CCOCC2)cc1 [compound 65]
9,138 A^2,"CC(=O)N(C)CCCC[C@@H]1NC(=O)[C@H](Cc2c[nH]c3c(C)cccc23)NC(=O)[C@H]([C@@H](C)O)NC(=O)[C@H](CC(=O)N(C)C)NC(=O)[C@@H](NC(=O)C(F)(F)F)C(C)(C)SSC(C)(C)[C@@H](C(=O)N[C@@H](Cc2ccc(OCCN(C)C)cc2)C(=O)N[C@@H](Cc2ccc3ccccc3c2)C(=O)NC2(C(=O)N[C@@H](CCCCN(C)C(C)=O)C(=O)N[C@@H](CC(N)=O)C(=O)N[C@@H](Cc3cccnc3)C(=O)N(C)CC(=O)N(C)C)CCOCC2)NC1=O [compound 66, CF3CO-Pen(3)-N(N(Me)2)-T-7MeW-K(NMeAc)-Pen(3)-AEF(N(Me)2)-2Nal-THP-K(NMeAc)-N-3Pya-Sar-CON(Me)2] (Tfa-[Pen]D(NMe2)T[Trp(7-Me)][Lys(Me)](Ac)[Pen]Y(Me2NCH2CH2)[2Nal][Thp][Lys(Me)](Ac)N[3Pal][Sar]-NMe2; disulfide 1-6 (inferred))"
10,161 A^2,CC(=O)N(C)CCCC[C@@H]1NC(=O)[C@H](Cc2c[nH]c3c(C)cccc23)NC(=O)[C@H]([C@@H](C)O)NC(=O)[C@H](CC(N)=O)NC(=O)[C@@H](NC(=O)C(F)(F)F)C(C)(C)SSC(C)(C)[C@@H](C(=O)N[C@@H](Cc2ccc(OCCN)cc2)C(=O)N[C@@H](Cc2ccc3ccccc3c2)C(=O)NC2(C(=O)N[C@@H](CCCCN(C)C(C)=O)C(=O)N[C@@H](CC(N)=O)C(=O)N[C@@H](Cc3cccnc3)C(=O)N(C)CC(N)=O)CCOCC2)NC1=O [compound 69] (Tfa-[Pen]NT[Trp(7-Me)][Lys(Me)](Ac)[Pen][AEF][2Nal][Thp][Lys(Me)](Ac)N[3Pal][Sar]-NH2; disulfide 1-6)
11,157 A^2,CC(=O)NCCCC[C@H](NC(=O)C1(NC(=O)[C@H](Cc2ccc3ccccc3c2)NC(=O)[C@H](Cc2ccc(OCCN)cc2)NC(=O)[C@H]2NC(=O)[C@H](CCN(C)C(C)=O)NC(=O)[C@H](Cc3c[nH]c4c(C)cccc34)NC(=O)[C@H]([C@@H](C)O)NC(=O)[C@H](CC(N)=O)NC(=O)[C@@H](NC(=O)C(F)(F)F)C(C)(C)SSC2(C)C)CCOCC1)C(=O)N[C@@H](CC(N)=O)C(=O)N[C@@H](Cc1cccnc1)C(=O)N(C)CC(N)=O [compound 70] (Tfa-[Pen]NT[Trp(7-Me)][Dab(NMeAc)][Pen][AEF][2Nal][Thp]K(Ac)N[3Pal][Sar]-NH2; disulfide 1-6)
12,160 A^2,CC(=O)NCCCC[C@@H]1NC(=O)[C@H](Cc2c[nH]c3c(C)cccc23)NC(=O)[C@H]([C@@H](C)O)NC(=O)[C@H](CC(N)=O)NC(=O)[C@@H](NC(=O)C(F)(F)F)C(C)(C)SSC(C)(C)[C@@H](C(=O)N[C@@H](Cc2ccc(OCCN)cc2)C(=O)N[C@@H](Cc2ccc3ccccc3c2)C(=O)NC2(C(=O)N[C@@H](CCC(=O)N(C)C)C(=O)N[C@@H](CC(N)=O)C(=O)N[C@@H](Cc3cccnc3)C(=O)N(C)CC(N)=O)CCOCC2)NC1=O [compound 72] (Tfa-[Pen]NT[Trp(7-Me)]K(Ac)[Pen][AEF][2Nal][Thp]E(NMe2)N[3Pal][Sar]-NH2; disulfide 1-6 (inferred))
13,155 A^2,"CC(=O)NCCCC[C@@H]1NC(=O)[C@H](Cc2c[nH]c3c(C)cccc23)NC(=O)[C@H]([C@@H](C)O)NC(=O)[C@H](CC(N)=O)NC(=O)[C@@H](NC(=O)C(F)(F)F)C(C)(C)SSC(C)(C)[C@@H](C(=O)N[C@@H](Cc2ccc(OCCN)cc2)C(=O)N[C@@H](Cc2ccc3ccccc3c2)C(=O)NC2(C(=O)N[C@@H](CCCCNC(C)=O)C(=O)N[C@@H](CC(N)=O)C(=O)N[C@@H](Cc3cccnc3)C(=O)N3CC(F)(F)C[C@H]3C(=O)N(C)C)CCOCC2)NC1=O [compound 73] (Tfa-[Pen]NT[Trp(7-Me)]K(Ac)[Pen][AEF][2Nal][Thp]K(Ac)N[3Pal][Pro(4,4-F2)]-NMe2; disulfide 1-6 (inferred))"
14,154 A^2,CC(=O)NCCCC[C@@H]1NC(=O)[C@H](Cc2c[nH]c3c(C)cccc23)NC(=O)[C@H]([C@@H](C)O)NC(=O)[C@H](CC(N)=O)NC(=O)[C@@H](NC(=O)C(F)(F)F)C(C)(C)SSC(C)(C)[C@@H](C(=O)N[C@@H](Cc2ccc(OCCN)cc2)C(=O)N[C@@H](Cc2ccc3ccccc3c2)C(=O)NC2(C(=O)N[C@@H](CCCCNC(C)=O)C(=O)N[C@@H](CC(N)=O)C(=O)N[C@@H](Cc3cccnc3)C(=O)N(C)CC(=O)N(C)C)CCOCC2)NC1=O [compound 74] (Tfa-[Pen]NT[Trp(7-Me)]K(Ac)[Pen][AEF][2Nal][Thp]K(Ac)N[3Pal][Sar]-NMe2; disulfide 1-6 (inferred))
